Test results as given in US8563516B2, “Foxp3 peptide vaccine” (OncoTherapy Science, Inc., priority 2007, dated 2013).

Assays:
Assay type in all cases: cell-based, human
[1] = system: peptide-pulsed T2 cells; test: IFN-gamma ELISPOT on CTLs induced with HLA-A0201 restricted Foxp3 peptides; conditions: FIG. 2A/2B/2C
From the text: (§1) Monocyte-derived dendritic cells (DCs) were used as antigen-presenting cells (APCs) to induce CTL responses against peptides presented on HLA. DCs were generated in vitro as described elsewhere (Horiguchi S. et al. Cancer Res. 59:2950-6). Specifically, peripheral blood mononuclear cells (PBMCs) isolated from normal volunteer (HLA-A*2402 and/or HLA-A*0201) with Ficoll-Plaque (Pharmacia) solution were separated by adherence to plastic tissue culture dish (Becton Dickinson) so as to enrich them for the monocyte fraction. The monocyte-enriched population was cultured in the presence of 1000 U/ml of GM-CSF (R&D System) and 1000 U/ml of IL-4 (R&D System) in AIM-V medium (Invitrogen) containing 2% heat-inactivated autologous serum (AS). After 7 days in the culture, the cytokine-generated DCs were pulsed with 20 mcg/ml of the synthesized peptides in the presence of 3 mcg/ml of beta2-microglobulin for 4 hrs at 20 degrees C. in AIM-V medium. These peptide-pulsed DCs were then inactivated with mitomycin C (MMC) (30 mcg/ml for 30 mins) and mixed at a 1:20 ratio with autologous CD8+ T cells, obtained by positive selection with CD8 Positive Isolation Kit (Dynal). These cultures were set up in 48-well plates (Corning); each well contained 1.5×10^4 peptide-pulsed DCs, 3×10^5 CD8+ T cells and 10 ng/ml of IL-7 (R&D System) in 0.5 ml of AIM-V/2% AS. Three days later, these cultures were supplemented with IL-2 (CHIRON) to a final concentration of 20 IU/ml. On day 7 and 14, the T cells were further restimulated with the peptide-pulsed autologous DCs. The DCs were prepared each time through the same procedure described above. CTL activity was tested against peptide-pulsed A24LCL cells or T2 cells after the 3rd round of peptide stimulation on day 21.
(§2) To examine the specific CTL activity, IFN-gamma ELISPOT assay and IFN-gamma ELISA were performed. Briefly, peptide-pulsed A24-LCL, T2 cell (1×10^4/well) or the cells endogenously expressing Foxp3 and HLA molecule was prepared as a stimulator cells. Cultured CTL lines in 48 wells were used as a responder cells. IFN-gamma ELISPOT assay and IFN-gamma ELISA were performed under manufacture procedure.
Resulting CTLs showing detectable specific CTL activity were shown in FIG. 2A, FIG. 2B and FIG. 2C when performed by IFN-gamma ELISPOT assay.

[2] = system: peptide-pulsed T2 cells; test: IFN-gamma ELISA on expanded CTL lines, HLA-A02 peptides; conditions: expanded cells of positive wells, FIG. 3A-D, 3F
Method: CTLs were expanded in culture using a similar method as reported by Riddell, et al. (Walter et al., N Engl J Med 333(16): 1038-44, 1995; Riddell et al., Nat Med 2(2): 216-23, 1996 February). A total of 5×10^4 CTLs were resuspended in 25 ml of AIM-V/5% AS with 2 kinds of human B-lymphoblastoid cell lines, inactivated with MMC, in the presence of 40 ng/ml of anti-CD3 monoclonal antibody (Pharmingen). One day after initiating the cultures, 120 IU/ml of IL-2 were added to the cultures. The cultures were fed with fresh AIM-V/5% AS containing 30 IU/ml of IL-2 on days 5, 8 and 11.
as §2
These cells in the positive wells were expanded and performed IFN-gamma ELISA assay.

[3] = system: 293T that transfected both Foxp3 and HLA-A02; test: Specific CTL activity against target cells expressing Foxp3 and HLA-A02
Method: as §2
(§3) The established CTL clone raised against these peptides were examined for their ability to recognize the target cells endogenously expressing Foxp3 and HLA-A*24 or 02. Specific CTL activity against 293T transfected both full length of Foxp3 gene and HLA-A*24 or 02 molecule, which is specific model for the target cells endogenously express Foxp3 and HLA-A*24 or 02, was tested using the CTL lines raised by Foxp3-A02-9-390 (SEQ ID NO: 15) and Foxp3-A02-9-252 (SEQ ID NO: 17) as effector cells. […] Furthermore, these peptides were epitope peptides, which can utilize vaccine targeting Foxp3 expressed T-regs.

[4] = system: 293T that transfected both Foxp3 and HLA-A24; test: Specific CTL activity against target cells expressing Foxp3 and HLA-A24
Method: as §2, §3

[5] = system: peptide pulsed T2 cells; test: IFN-gamma ELISPOT: CTL line induced with Foxp3-9-252-WT against T2 cells pulsed with substituted peptide; conditions: FIG. 7A
Method: IFN-gamma ELISPOT assay was performed using CTL line induced with Foxp3-9-252-WT peptide as responder cells and T2 cells pulsed Foxp3-9-252-WT or Foxp3-9-252-9V peptide as stimulator cells, respectively. T2 cells without peptide pulse were prepared as control. […] IFN-gamma ELISA assay was performed using CTL line induced with Foxp3-9-252-WT peptide as responder cells (1×10^5 cells/well) and Foxp3-9-252-WT (-solid circle-), Foxp3-9-252-9V (-open circle-) or HIV-A02 (-solid triangle-) peptide pulsed T2 cells as stimulator cells (1×10^4 cells/well). Peptide pulse of stimulator cells was conducted at 37 degree Celsius for 2 hours in each kind of peptide and peptide concentration.
as §2
And then the present inventers examined whether peptide-pulsed stimulator cells using these substitutions were recognized by CTLs generated with Foxp3-9-252-WT peptide.

[6] = system: peptide-pulsed A24LCL cells or T2 cells; test: In vitro CTL induction by peptide-loaded dendritic cells (summary statements)
From the text: Confirmation of CTL inducibility can be accomplished by inducing antigen-presenting cells carrying human MHC antigens (for example, B-lymphocytes, macrophages, and dendritic cells), or more specifically dendritic cells derived from human peripheral blood mononuclear leukocytes, and after stimulation with the peptides, mixing with CD8-positive cells, and then measuring the IFN-gamma produced and released by CTL against the target cells. As the reaction system, transgenic animals that have been produced to express a human HLA antigen (for example, those described in BenMohamed L, Krishnan R, Longmate J, Auge C, Low L, Primus J, Diamond D J, Hum Immunol 61(8): 764-79, 2000 August, Related Articles, Books, Linkout Induction of CTL response by a minimal epitope vaccine in HLA A*0201/DR1 transgenic mice: dependence on HLA class II restricted T(H) response) can be used. For example, the target cells can be radiolabeled with ^51Cr and such, and cytotoxic activity can be calculated from radioactivity released from the target cells. Alternatively, it can be examined by measuring IFN-gamma produced and released by CTL in the presence of antigen-presenting cells that carry immobilized peptides, and visualizing the inhibition zone on the media using anti-IFN-gamma monoclonal antibodies.
as §1, §2

KLSAMQAHL (peptide vaccine) [SEQ ID NO 17]
IFN-gamma production of CTLs stimulated with peptide, compared with the control [1]: potent IFN-gamma production
IFN-gamma production of CTL lines stimulated with peptide, compared with the control [2]: potent IFN-gamma production
specific CTL activity of CTL lines raised by peptide ([3]; against 293T transfected with both Foxp3 and HLA-A02, FIG. 4A/4B): high specific CTL activity
specific CTL activity against controls ([3]; controls of FIG. 4A/4B): did not show significant specific CTL activity
specific CTL activity of CTL lines raised by peptide ([4]; against 293T transfected with both Foxp3 and HLA-A24, FIG. 4C): high specific CTL activity
specific CTL activity against controls ([4]; controls of FIG. 4C): did not show significant specific CTL activity
IFN-gamma production of Foxp3-9-252-WT induced CTLs against peptide pulsed T2 cells [5]: produced IFN-gamma
specific CTL activity ([6]; against peptide pulsed target cells): significant and specific CTL activity
establishment of CTLs ([6]; in vitro stimulation of T-cells by DCs loaded with peptide): CTLs were successfully established
